Paper PMC11822212, “High-throughput screening identifies Aurora kinase B as a critical therapeutic target for Merkel cell carcinoma” (Nature Communications, 2025)
Where two headings read alike, the source gives them in different places.

How the values were obtained:
[1] = system: VN-MCC cell lines (MCC13, MCC26, UISO); assay: qHTS cell viability, VN-MCC cell lines as a group (mean AUC, VN.MCC.avg); format: cell-based, human
MCC26 cells (VN-MCC) = assay: qHTS cell viability (CellTiter-Glo, 72 h; primary and follow-up small molecule screen); format: cell-based, human
NIH-3T3 cells = assay: qHTS cell viability (CellTiter-Glo, 72 h; primary screen), control cell line; format: cell-based, mouse
HEK293T cells = assay: as above; format: cell-based, human
MKL-1 cells (VP-MCC) = assay: qHTS cell viability (CellTiter-Glo, 72 h; primary and follow-up small molecule screen); format: cell-based, human
[2] = system: VP-MCC cell lines (WAGA, MKL-1, MKL-2); assay: qHTS cell viability, VP-MCC cell lines as a group (mean AUC, VP.MCC.avg); format: cell-based, human
[3] = system: control cell lines (HACAT, HEK293T, CRL-7250, NIH-3T3); assay: qHTS cell viability, control cell lines as a group (mean AUC, Control.avg); format: cell-based
UISO cells (VN-MCC) = assay: qHTS cell viability (CellTiter-Glo, 72 h; primary and follow-up small molecule screen); format: cell-based, human
[4] = system: MCC cell lines (WAGA, MKL-1, MKL-2, MCC13, MCC26, UISO); assay: qHTS cell viability, all six MCC cell lines as a group (mean AUC, MCC.avg); format: cell-based, human
WAGA cells (VP-MCC) = assay: qHTS cell viability (CellTiter-Glo, 72 h; primary and follow-up small molecule screen); format: cell-based, human
MKL-2 cells (VP-MCC) = assay: as above; format: cell-based, human
[5] = system: six MCC cell lines and four control cell lines; assay: qHTS cell viability, all 10 cell lines screened; format: cell-based
CRL-7250 cells = assay: qHTS cell viability (CellTiter-Glo, 72 h; primary screen), control cell line; format: cell-based
HACAT cells = assay: as above; format: cell-based, human
MCC13 cells (VN-MCC) = assay: qHTS cell viability (CellTiter-Glo, 72 h; primary and follow-up small molecule screen); format: cell-based, human
[6] = MIPE library, 11-point DRC, sheet S2E
[7] = area under the dose-response curve, MCC26 cells, AUC<450 = reduced viability
[8] = MIPE library, 11-point DRC, control cell line, sheet S2E
[9] = area under the dose-response curve, NIH3T3 control cells, AUC<450 = reduced viability
[10] = area under the dose-response curve, HEK293T control cells, AUC<450 = reduced viability
[11] = area under the dose-response curve, UISO cells, AUC<450 = reduced viability
[12] = area under the dose-response curve, WAGA cells, AUC<450 = reduced viability
[13] = area under the dose-response curve, MKL-2 cells, AUC<450 = reduced viability
[14] = area under the dose-response curve, CRL7250 control cells, AUC<450 = reduced viability
[15] = area under the dose-response curve, HACAT control cells, AUC<450 = reduced viability
[16] = area under the dose-response curve, MCC13 cells, AUC<450 = reduced viability

**Q.** What does the source list for `O=C(CCc1ccc(O)cc1)c1c(O)cc(O)cc1O` [Phloretin]?
**A.** Control-VN-MCC ([1]; MIPE library, Control AUC minus VN-MCC AUC (therapeutic window), sheet S2E): -6.696; VN-MCC_Avg_AUC ([1]; MIPE library, mean AUC of VN-MCC cell lines, sheet S2E): 476.56; MCC26_AUC (MCC26 cells (VN-MCC); [6]): 472.357; MCC26_AUC (MCC26 cells (VN-MCC); [7]): 472.357; Area under the dose-response curve (AUC) MCC26 Replicate 1 (MCC26 cells (VN-MCC); follow-up screen, MCC26, replicate 1): 472.4; Area under the dose-response curve (AUC) MCC26 Replicate 2 (MCC26 cells (VN-MCC); follow-up screen, MCC26, replicate 2): 446.6; Area under the dose-response curve (AUC) MCC26 Replicate 3 (MCC26 cells (VN-MCC); follow-up screen, MCC26, replicate 3): 497.7; NIH3T3_AUC (NIH-3T3 cells; [8]): 475.685; NIH3T3_AUC (NIH-3T3 cells; [9]): 475.685; HEK293T_AUC (HEK293T cells; [8]): 470.007; HEK293T_AUC (HEK293T cells; [10]): 470.007; MKL1_AUC (MKL-1 cells (VP-MCC); [6]): 433.632; MKL1_AUC (MKL-1 cells (VP-MCC); area under the dose-response curve, MKL-1 cells, AUC<450 = reduced viability): 433.632; Area under the dose-response curve (AUC) MKL-1 Replicate 1 (MKL-1 cells (VP-MCC); follow-up screen, MKL-1, replicate 1): 526.8; Area under the dose-response curve (AUC) MKL-1 Replicate 2 (MKL-1 cells (VP-MCC); follow-up screen, MKL-1, replicate 2): 492.2; Area under the dose-response curve (AUC) MKL-1 Replicate 3 (MKL-1 cells (VP-MCC); follow-up screen, MKL-1, replicate 3): 497.0; Control-VP-MCC ([2]; MIPE library, Control AUC minus VP-MCC AUC (therapeutic window), sheet S2E): 54.4642; VP-MCC_Avg_AUC ([2]; MIPE library, mean AUC of VP-MCC cell lines, sheet S2E): 415.4; Control_Avg_AUC ([3]; MIPE library, mean AUC of control cell lines, sheet S2E): 469.864; UISO_AUC (UISO cells (VN-MCC); [6]): 485.008; UISO_AUC (UISO cells (VN-MCC); [11]): 485.008; Area under the dose-response curve (AUC) UISO Replicate 1 (UISO cells (VN-MCC); follow-up screen, UISO, replicate 1): 542.5; Area under the dose-response curve (AUC) UISO Replicate 2 (UISO cells (VN-MCC); follow-up screen, UISO, replicate 2): 515.8; Area under the dose-response curve (AUC) UISO Replicate 3 (UISO cells (VN-MCC); follow-up screen, UISO, replicate 3): 481.4; MCC_Avg_AUC ([4]; MIPE library, mean AUC of six MCC cell lines, sheet S2E): 445.98; WAGA_AUC (WAGA cells (VP-MCC); [6]): 402.295; WAGA_AUC (WAGA cells (VP-MCC); [12]): 402.295; Area under the dose-response curve (AUC) WAGA Replicate 1 (WAGA cells (VP-MCC); follow-up screen, WAGA, replicate 1): 571.8; Area under the dose-response curve (AUC) WAGA Replicate 2 (WAGA cells (VP-MCC); follow-up screen, WAGA, replicate 2): 490.2; Area under the dose-response curve (AUC) WAGA Replicate 3 (WAGA cells (VP-MCC); follow-up screen, WAGA, replicate 3): 485.7; MKL2_AUC (MKL-2 cells (VP-MCC); [6]): 410.273; MKL2_AUC (MKL-2 cells (VP-MCC); [13]): 410.273; Area under the dose-response curve (AUC) MKL-2 Replicate 1 (MKL-2 cells (VP-MCC); follow-up screen, MKL-2, replicate 1): 493.4; Area under the dose-response curve (AUC) MKL-2 Replicate 2 (MKL-2 cells (VP-MCC); follow-up screen, MKL-2, replicate 2): 509.3; Area under the dose-response curve (AUC) MKL-2 Replicate 3 (MKL-2 cells (VP-MCC); follow-up screen, MKL-2, replicate 3): 493.0; Control-MCC ([5]; MIPE library, Control AUC minus MCC AUC (therapeutic window), sheet S2E): 23.8842; CRL7250_AUC (CRL-7250 cells; [8]): 456.981; CRL7250_AUC (CRL-7250 cells; [14]): 456.981; HACAT_AUC (HACAT cells; [8]): 476.785; HACAT_AUC (HACAT cells; [15]): 476.785; MCC13_AUC (MCC13 cells (VN-MCC); [6]): 472.315; MCC13_AUC (MCC13 cells (VN-MCC); [16]): 472.315; Area under the dose-response curve (AUC) MCC13 Replicate 1 (MCC13 cells (VN-MCC); follow-up screen, MCC13, replicate 1): 534.6; Area under the dose-response curve (AUC) MCC13 Replicate 2 (MCC13 cells (VN-MCC); follow-up screen, MCC13, replicate 2): 495.7; Area under the dose-response curve (AUC) MCC13 Replicate 3 (MCC13 cells (VN-MCC); follow-up screen, MCC13, replicate 3): 492.0

**Q.** What does the source list for `CC1=C(C)C(=O)C(CCCCC#CCCCC#CCO)=C(C)C1=O` [Docebenone]?
**A.** VN-MCC_Avg_AUC ([1]; NPC library, mean AUC of VN-MCC cell lines): 435.96; Control-VN-MCC ([1]; NPC library, therapeutic window: Control avg AUC minus VN-MCC avg AUC): 34.5201; MCC26_AUC (MCC26 cells (VN-MCC); NPC library, qHTS dose-response AUC, MCC26): 429.759; MCC26_AUC (MCC26 cells (VN-MCC); [7]): 429.759; NIH3T3_AUC (NIH-3T3 cells; NPC library, qHTS dose-response AUC, NIH3T3 control): 455.144; NIH3T3_AUC (NIH-3T3 cells; [9]): 455.144; HEK293T_AUC (HEK293T cells; NPC library, qHTS dose-response AUC, HEK293T control): 450.348; HEK293T_AUC (HEK293T cells; [10]): 450.348; MKL1_AUC (MKL-1 cells (VP-MCC); NPC library, qHTS dose-response AUC, MKL1): 419.228; MKL1_AUC (MKL-1 cells (VP-MCC); {}): 419.228; VP-MCC_Avg_AUC ([2]; NPC library, mean AUC of VP-MCC cell lines): 416.945; Control-VP-MCC ([2]; NPC library, therapeutic window: Control avg AUC minus VP-MCC avg AUC): 53.5349; Control_Avg_AUC ([3]; NPC library, mean AUC of control cell lines): 470.48; UISO_AUC (UISO cells (VN-MCC); NPC library, qHTS dose-response AUC, UISO): 433.913; UISO_AUC (UISO cells (VN-MCC); [11]): 433.913; MCC_Avg_AUC ([4]; NPC library, mean AUC of six MCC cell lines): 426.453; WAGA_AUC (WAGA cells (VP-MCC); NPC library, qHTS dose-response AUC, WAGA): 424.745; WAGA_AUC (WAGA cells (VP-MCC); [12]): 424.745; MKL2_AUC (MKL-2 cells (VP-MCC); NPC library, qHTS dose-response AUC, MKL2): 406.862; MKL2_AUC (MKL-2 cells (VP-MCC); [13]): 406.862; Control-MCC ([5]; NPC library, therapeutic window: Control avg AUC minus MCC avg AUC): 44.0275; CRL7250_AUC (CRL-7250 cells; NPC library, qHTS dose-response AUC, CRL7250 control): 490.119; CRL7250_AUC (CRL-7250 cells; [14]): 490.119; HACAT_AUC (HACAT cells; NPC library, qHTS dose-response AUC, HACAT control): 486.31; HACAT_AUC (HACAT cells; [15]): 486.31; MCC13_AUC (MCC13 cells (VN-MCC); NPC library, qHTS dose-response AUC, MCC13): 444.208; MCC13_AUC (MCC13 cells (VN-MCC); [16]): 444.208

**Q.** Which results are given for `Cc1ccc([N+](=O)[O-])[c]2c1[O][Hg]2` [Nitromersol]?
**A.** Control-VN-MCC [1]: 18.7838; VN-MCC_Avg_AUC [1]: 326.845; MCC26_AUC (MCC26 cells (VN-MCC)): 361.414; NIH3T3_AUC (NIH-3T3 cells): 388.302; HEK293T_AUC (HEK293T cells): 310.441; MKL1_AUC (MKL-1 cells (VP-MCC)): 252.702; Control-VP-MCC [2]: 91.4976; VP-MCC_Avg_AUC [2]: 254.131; Control_Avg_AUC [3]: 345.629; UISO_AUC (UISO cells (VN-MCC)): 294.101; MCC_Avg_AUC [4]: 290.488; WAGA_AUC (WAGA cells (VP-MCC)): 281.054; MKL2_AUC (MKL-2 cells (VP-MCC)): 228.637; Control-MCC [5]: 55.1407; CRL7250_AUC (CRL-7250 cells): 286.086; HACAT_AUC (HACAT cells): 397.686; MCC13_AUC (MCC13 cells (VN-MCC)): 325.021
